Test results: ChEMBL document CHEMBL5725882, “Imide and acylurea derivatives as modulators of the glucocorticoid receptor” (2017)
pKi: −log10 of the molar value.

Each compound was assayed against T1, Glucocorticoid receptor (Homo sapiens, UniProt P04150) (assay: Briefly, purified human recombinant full-length glucocorticoid receptor (2 nM) was mixed with fluorescently labeled glucocorticoid (1 nM Fluormone GS Red) in the presence or absence of test compound. After two hour incubation at room temperature in the dark, the fluorescence polarization (FP) of the samples was measured. […] Test compounds were analyzed in the concentration range from 8.5E-05 μM to 5 μM. Binding Assay (II):In order to measure the binding of compounds on the glucocorticoid receptor a commercially available kit was used (Glucocorticoid receptor competitor assay kit, PanVera Co., Madison, Wis., P2816). Briefly, a cell lysate containing recombinantly expressed human full-length glucocorticoid receptor was mixed with a fluorescently labeled glucocorticoid (1 nM Fluormone GS1) in the presence or absence of test compound. After one hour at room temperature, the fluorescence polarization (FP) of the samples were measured. […] An appropriate cell lysate or purified NHR is used as the source of the NHR. The fluorescent probe and unlabeled competitor are appropriate for the specific NHR, i.e., are ligands for the specific NHR.).
T1 sequence (P04150 whole entry): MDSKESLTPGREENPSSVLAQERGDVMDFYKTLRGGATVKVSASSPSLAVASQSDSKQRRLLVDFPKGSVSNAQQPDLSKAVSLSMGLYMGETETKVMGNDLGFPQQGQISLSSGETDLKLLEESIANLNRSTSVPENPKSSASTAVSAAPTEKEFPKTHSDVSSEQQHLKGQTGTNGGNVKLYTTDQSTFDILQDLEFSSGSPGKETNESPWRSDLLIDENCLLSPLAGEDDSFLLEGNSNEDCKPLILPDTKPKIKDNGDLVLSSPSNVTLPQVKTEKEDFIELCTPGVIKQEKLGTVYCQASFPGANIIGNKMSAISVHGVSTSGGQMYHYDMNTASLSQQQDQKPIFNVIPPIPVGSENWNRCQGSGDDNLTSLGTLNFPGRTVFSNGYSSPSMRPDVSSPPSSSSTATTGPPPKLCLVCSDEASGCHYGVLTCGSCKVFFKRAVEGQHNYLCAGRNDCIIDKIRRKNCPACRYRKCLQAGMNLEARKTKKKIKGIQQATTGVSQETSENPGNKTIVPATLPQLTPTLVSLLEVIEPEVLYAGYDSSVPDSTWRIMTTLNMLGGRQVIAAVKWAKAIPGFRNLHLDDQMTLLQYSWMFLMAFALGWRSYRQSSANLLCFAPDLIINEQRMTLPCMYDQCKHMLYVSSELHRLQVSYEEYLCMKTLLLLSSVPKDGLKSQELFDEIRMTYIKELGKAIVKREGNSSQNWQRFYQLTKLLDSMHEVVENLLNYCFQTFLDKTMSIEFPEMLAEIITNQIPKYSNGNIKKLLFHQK
For `CC(=O)NC(=O)C(C)(C)[C@@H]1c2ccc(-c3ccc(C(=O)N(C)C)cc3)nc2Oc2c(F)cccc21`, the pKi was 7.03.
With `CC(C)(C(=O)NC(N)=O)[C@H]1c2ccccc2Oc2nc(-c3ccc(C(=O)N4CCOCC4)cc3)ccc21` the pKi was 8.74.
Compound `CNC(=O)NC(=O)C(C)(C)[C@@H]1c2ccc(-c3ccc(C(C)(C)O)cc3)nc2Oc2c(F)cccc21` has a pKi of 8.85.
Compound `CC(=O)NC(=O)C(C)(C)[C@H]1c2ccccc2Oc2nc(-c3ccc(C(=O)N4CCOCC4)cc3)ccc21` has a pKi of 8.15.
With `COc1ccc2c(c1)Oc1ccccc1[C@@H]2C(C)(C)C(=O)NC(N)=O` the pKi was 8.07.
For `CC(C)(O)c1ccc(-c2ccc3c(n2)Oc2c(F)cccc2[C@@H]3C(C)(C)C(=O)NC(N)=O)cc1`, the pKi was 9.49.
`COC(=O)NC(=O)C(C)(C)[C@@H]1c2ccc(-c3ccc(C(=O)OC)cc3)nc2Oc2c(F)cccc21` showed a pKi of 8.28.
`CC(C)(C(=O)NC(N)=O)[C@@H]1c2ccc(-c3ccc(C(=O)N4CCC4)cc3)nc2Oc2c(F)cccc21` showed a pKi of 9.03.
In the case of `CC(C)(C(=O)NC(=O)NCCO)[C@@H]1c2ccc(-c3ccc(C(=O)N4CCOCC4)cc3)nc2Oc2c(F)cccc21`, the pKi was 7.21.
Work on `CC(C)NC(=O)NC(=O)C(C)(C)[C@@H]1c2ccc(-c3ccc(C(=O)N4CCOCC4)cc3)nc2Oc2c(F)cccc21` yielded a pKi of 7.49.
`CC(C)(O)c1ccc(-c2ccc3c(n2)Oc2c(F)cccc2[C@@H]3C(C)(C)C(=O)NC(=O)NCCO)cc1` gave a pKi of 7.60.
With `CC(C)(O)CNC(=O)NC(=O)C(C)(C)[C@@H]1c2ccc(-c3ccc(C(=O)N4CCOCC4)cc3)nc2Oc2c(F)cccc21` the pKi was 7.06.
`CC(C)S(=O)(=O)c1ccc(-c2ccc3c(n2)Oc2ccccc2[C@@H]3C(C)(C)C(=O)NC(N)=O)cc1` showed a pKi of 9.24.
`CNC(=O)NC(=O)C(C)(C)[C@@H]1c2ccc(Cl)nc2Oc2c(F)cccc21` gave a pKi of 7.43.
Work on `CCC(=O)NC(=O)C(C)(C)[C@@H]1c2ccc(-c3ccc(C(=O)N4CCOCC4)cc3)nc2Oc2c(F)cccc21` yielded a pKi of 7.18.
For `CC(C)(O)CNC(=O)NC(=O)C(C)(C)[C@@H]1c2ccc(-c3ccc(C(C)(C)O)cc3)nc2Oc2c(F)cccc21`, the pKi was 7.68.
`CC(C)(C(=O)NC(=O)N1CCOCC1)[C@@H]1c2ccc(-c3ccc(C(=O)N4CCOCC4)cc3)nc2Oc2c(F)cccc21` gave a pKi of 6.77.
